Values of other authors in patent publication US6406713B1 (priority 1987, dated 2002).

Legend:
HTLV-III/LAV virus = conditions: HTLV-III/LAV infected cell cultures
histoplasmosis = conditions: mouse, in vivo

Row | Molecule | protection of target cells against cytopathic effects of the virus (HTLV-III/LAV virus) | serum and tissue distributions (histoplasmosis) | toxicity versus free amphotericin B preparations (histoplasmosis)
1 | COC(=O)[C@H]1[C@@H]2C[C@@H](O[C@@H]3O[C@H](C)[C@@H](O)[C@H](N)[C@@H]3O)/C=C/C=C/C=C/C=C/C=C/C=C/C=C/[C@H](C)[C@@H](O)[C@@H](C)[C@H](C)OC(=O)C[C@H](O)C[C@H](O)CC[C@@H](O)[C@H](O)C[C@H](O)C[C@](O)(C[C@@H]1O)O2 [amphotericin B methyl ester] | protected target cells against the cytopathic effects of the virus |  | 
2 | C[C@@H]1[C@H](O)[C@@H](C)/C=C/C=C/C=C/C=C/C=C/C=C/C=C/[C@H](O[C@@H]2O[C@H](C)[C@@H](O)[C@H](N)[C@@H]2O)C[C@@H]2O[C@](O)(C[C@@H](O)C[C@@H](O)[C@H](O)CC[C@@H](O)C[C@@H](O)CC(=O)O[C@H]1C)C[C@H](O)[C@H]2C(=O)O [amphotericin B] | protected target cells against the cytopathic effects of the virus |  | 
3 | liposomal-amphotericin B |  | lower serum levels and higher liver and spleen concentrations | less toxic
